The record followed here is patent publication US10464911B2, “1,3,4-oxadiazole sulfamide derivative compounds as histone deacetylase 6 inhibitor, and the pharmaceutical composition comprising the same” (Chong Kun Dang Pharmaceutical Corp., priority 2015, dated 2019).

The assay deals with human recombinant HDAC6 (Homo sapiens (Human), UniProt Q9UBN7). Description: HDAC6 enzyme activity inhibition assay (HDAC Fluorimetric Drug Discovery Kit). It counts as biochemical. Conditions: for HDAC6 selectivity (fold): HDAC6 versus HDAC1; for IC50: human recombinant HDAC6, same protocol as HDAC1 test. The procedure:
In order to examine the HDAC6 selectivity of the compounds of formula I of the present invention by HDAC1 and HDAC6 enzymatic activity inhibition assays, an experiment was performed using a conventional substance as a control.
HDAC enzyme activity was measured using a HDAC Fluorimetric Drug Discovery Kit (BML-AK511, 516, Enzo Life Science). For the HDAC1 enzyme activity test, human recombinant HDAC1 (BML-SE456) was used as an enzyme source, and Fluor de Lys®-“SIRT1 (BNL-KI177) was used as a substrate. A 5-fold dilution of the compound was seeded into a 96-well plate, and then 0.3 μg of the enzyme and 10 μM of the substrate were added to each well of the plate and allowed to react at 30 for 60 minutes. Then, Fluor de Lys®-Developer II (BML-KI176) was added thereto and allowed to react for 30 minutes, after which the fluorescence value (Ex 360, Em 460) was measured using a multi-plate reader (Flexstation 3, Molecular Device). The HDAC6 enzyme was tested using human recombinant HDAC6 (382180) (Calbiochem) according to the same protocol as the HDAC1 enzyme activity test method. Based on the resulting values, each IC50 value was calculated using GraphPad Prism4.0 program.

For orientation: IC50 means the point on the concentration scale where inhibition reaches its midpoint.

Sequence of human recombinant HDAC6 (Q9UBN7 whole entry): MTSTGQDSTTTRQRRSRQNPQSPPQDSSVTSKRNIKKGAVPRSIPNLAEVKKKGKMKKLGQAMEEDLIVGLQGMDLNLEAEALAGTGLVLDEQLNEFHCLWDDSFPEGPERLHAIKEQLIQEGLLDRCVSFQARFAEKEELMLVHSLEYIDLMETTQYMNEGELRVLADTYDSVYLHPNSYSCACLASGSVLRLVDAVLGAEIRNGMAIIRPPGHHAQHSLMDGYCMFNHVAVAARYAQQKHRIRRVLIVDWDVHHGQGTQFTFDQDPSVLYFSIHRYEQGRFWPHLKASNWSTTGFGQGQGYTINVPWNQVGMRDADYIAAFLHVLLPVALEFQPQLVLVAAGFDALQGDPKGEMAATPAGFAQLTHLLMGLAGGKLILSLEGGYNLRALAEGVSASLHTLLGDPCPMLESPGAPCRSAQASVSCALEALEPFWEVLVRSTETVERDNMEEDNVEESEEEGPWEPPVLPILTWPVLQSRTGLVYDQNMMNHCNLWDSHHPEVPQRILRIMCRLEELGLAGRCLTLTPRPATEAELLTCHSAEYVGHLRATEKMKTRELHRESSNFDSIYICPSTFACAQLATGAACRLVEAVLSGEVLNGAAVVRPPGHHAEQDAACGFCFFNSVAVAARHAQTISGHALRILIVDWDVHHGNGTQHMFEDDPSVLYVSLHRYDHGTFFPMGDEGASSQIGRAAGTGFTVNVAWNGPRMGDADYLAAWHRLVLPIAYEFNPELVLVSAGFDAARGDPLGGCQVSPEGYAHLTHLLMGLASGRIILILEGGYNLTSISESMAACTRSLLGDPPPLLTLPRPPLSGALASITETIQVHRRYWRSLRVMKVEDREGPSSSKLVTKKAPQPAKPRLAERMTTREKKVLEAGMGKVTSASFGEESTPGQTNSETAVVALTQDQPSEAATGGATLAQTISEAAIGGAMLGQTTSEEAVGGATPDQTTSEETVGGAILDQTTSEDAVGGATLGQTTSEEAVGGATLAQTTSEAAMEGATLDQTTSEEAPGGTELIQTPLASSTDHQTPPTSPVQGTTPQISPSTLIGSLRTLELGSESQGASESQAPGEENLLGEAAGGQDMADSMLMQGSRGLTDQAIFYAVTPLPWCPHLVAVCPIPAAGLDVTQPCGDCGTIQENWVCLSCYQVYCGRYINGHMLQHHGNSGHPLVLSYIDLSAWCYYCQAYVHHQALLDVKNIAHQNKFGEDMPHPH

Turning to `CC(=O)N1CCN(S(=O)(=O)N(Cc2ccc(-c3nnc(C(F)(F)F)o3)cc2F)c2cccnc2)CC1` [Compound 11322, 4-acetyl-N-(2-fluoro-4-(5-(trifluoromethyl)-1,3,4-oxadiazol-2-yl)benzyl)-N-(pyridin-3-yl)piperazine-1-sulfonamide], the “HDAC6 selectivity (fold)” value turned out to be 1507 fold and the IC50 was found to be 66 nM.

As to `CN1CCN(S(=O)(=O)N(Cc2ccc(-c3nnc(C(F)F)o3)cn2)c2ccccc2)CC1` [Compound 11363, N-((5-(5-(difluoromethyl)-1,3,4-oxadiazol-2-yl)pyridin-2-yl)methyl)-4-methyl-N-phenylpiperazine-1-sulfonamide], the “HDAC6 selectivity (fold)” value was determined as 6863 fold and the IC50 is 15 nM.

For the compound `O=S(=O)(N1CCN(C2COC2)CC1)N(Cc1ccc(-c2nnc(C(F)F)o2)cc1F)c1ccccc1` [Compound 11379, N-(4-(5-(difluoromethyl)-1,3,4-oxadiazol-2-yl)-2-fluorobenzyl)-4-(oxetan-3-yl)-N-phenylpiperazine-1-sulfonamide], the “HDAC6 selectivity (fold)” value is 3846 fold and the IC50 was found to be 26 nM.

As to `O=S1(=O)CCN(S(=O)(=O)N(Cc2ccc(-c3nnc(C(F)F)o3)cn2)c2ccccc2)CC1` [Compound 11440, N-((5-(5-(difluoromethyl)-1,3,4-oxadiazol-2-yl)pyridin-2-yl)methyl)-N-phenylthiomorpholine-4-sulfonamide 1,1-dioxide], the “HDAC6 selectivity (fold)” value is listed as 5000 fold and the IC50 is 20 nM.

Take `O=S(=O)(N1CCN(C2COC2)CC1)N(Cc1ccc(-c2nnc(C(F)F)o2)cn1)c1ccccc1` [Compound 11574, N-((5-(5-(difluoromethyl)-1,3,4-oxadiazol-2-yl)pyridin-2-yl)methyl)-4-(oxetan-3-yl)-N-phenylpiperazine-1-sulfonamide]: the “HDAC6 selectivity (fold)” value is 6250 fold and the IC50 came to 16 nM.

Take `O=S(=O)(N1CCN(C2COC2)CC1)N(Cc1ccc(-c2nnc(C(F)F)o2)cc1)c1ccccc1` [Compound 11575, N-(4-(5-(difluoromethyl)-1,3,4-oxadiazol-2-yl)benzyl)-4-(oxetan-3-yl)-N-phenylpiperazine-1-sulfonamide]: the “HDAC6 selectivity (fold)” value was found to be 2083 fold and the IC50 was 48 nM.

On to `CCN1[C@H](C)CN(S(=O)(=O)N(Cc2ccc(-c3nnc(C(F)F)o3)cc2)c2ccccc2)C[C@@H]1C` [Compound 11640, (3S,5R)—N-(4-(5-(difluoromethyl)-1,3,4-oxadiazol-2-yl)benzyl)-4-ethyl-3,5-dimethyl-N-phenylpiperazine-1-sulfonamide], for which the “HDAC6 selectivity (fold)” value came out at 946 fold and the IC50 was found to be 105 nM.

For `CC(=O)N1[C@H](C)CN(S(=O)(=O)N(Cc2ccc(-c3nnc(C(F)F)o3)cc2)c2ccccc2)C[C@@H]1C` [Compound 11641, (3S,5R)-4-acetyl-N-(4-(5-(difluoromethyl)-1,3,4-oxadiazol-2-yl)benzyl)-3,5-dimethyl-N-phenylpiperazine-1-sulfonamide], the “HDAC6 selectivity (fold)” value was found to be 2989 fold and the IC50 came out at 33 nM.

Turning to `CCCN1[C@H](C)CN(S(=O)(=O)N(Cc2ccc(-c3nnc(C(F)F)o3)cc2)c2ccccc2)C[C@@H]1C` [Compound 11642, (3S,5R)—N-(4-(5-(difluoromethyl)-1,3,4-oxadiazol-2-yl)benzyl)-3,5-dimethyl-N-phenyl-4-propylpiperazine-1-sulfonamide], the “HDAC6 selectivity (fold)” value came out at 287 fold and the half-maximal inhibitory concentration (IC50) stood at 348 nM.

For `C[C@@H]1CN(S(=O)(=O)N(Cc2ccc(-c3nnc(C(F)F)o3)cc2)c2ccccc2)C[C@H](C)N1C` [Compound 11643, (3S,5R)—N-(4-(5-(difluoromethyl)-1,3,4-oxadiazol-2-yl)benzyl)-3,4,5-trimethyl-N-phenylpiperazine-1-sulfonamide], the “HDAC6 selectivity (fold)” value came to 1443 fold and the IC50 stood at 69 nM.

Consider `C[C@@H]1CN(S(=O)(=O)N(Cc2ccc(-c3nnc(C(F)F)o3)cc2)c2ccccc2)C[C@H](C)N1C(=O)C(F)F` [Compound 11644, (3S,5R)-4-(2,2-difluoroacetyl)-N-(4-(5-(difluoromethyl)-1,3,4-oxadiazol-2-yl)benzyl)-3,5-dimethyl-N-phenylpiperazine-1-sulfonamide], for which the “HDAC6 selectivity (fold)” value came out at 770 fold and the IC50 worked out at 130 nM.

For the compound `CC(C)N1CCN(S(=O)(=O)N(Cc2ccc(-c3nnc(C(F)F)o3)cc2)c2ccc(F)c(Cl)c2)CC1` [Compound 11651, N-(3-chloro-4-fluorophenyl)-N-(4-(5-(difluoromethyl)-1,3,4-oxadiazol-2-yl)benzyl)-4-iso propylpiperazine-1-sulfonamide], the “HDAC6 selectivity (fold)” value was found to be 207 fold and the IC50 amounted to 481 nM.

Take `O=S(=O)(N1CCN(C2CCC2)CC1)N(Cc1ccc(-c2nnc(C(F)F)o2)cc1)c1ccc(F)c(Cl)c1` [Compound 11652, N-(3-chloro-4-fluorophenyl)-4-cyclobutyl-N-(4-(5-(difluoromethyl)-1,3,4-oxadiazol-2-yl)benzyl)piperazine-1-sulfonamide]: the “HDAC6 selectivity (fold)” value was determined as 422 fold and the IC50 was determined as 237 nM.

Consider `CC(C)N1CCN(S(=O)(=O)N(Cc2ccc(-c3nnc(C(F)F)o3)cn2)c2ccc(F)c(Cl)c2)CC1` [Compound 11670, N-(3-chloro-4-fluorophenyl)-N-((5-(5-(difluoromethyl)-1,3,4-oxadiazol-2-yl)pyridin-2-yl)methyl)-4-isopropylpiperazine-1-sulfonamide], for which the “HDAC6 selectivity (fold)” value is 4761 fold and the IC50 turned out to be 21 nM.

For `O=S(=O)(N1CCN(C2CCC2)CC1)N(Cc1ccc(-c2nnc(C(F)F)o2)cn1)c1ccc(F)c(Cl)c1` [Compound 11671, N-(3-chloro-4-fluorophenyl)-4-cyclobutyl-N-((5-(5-(difluoromethyl)-1,3,4-oxadiazol-2-yl)pyridin-2-yl)methyl)piperazine-1-sulfonamide], the “HDAC6 selectivity (fold)” value amounted to 3703 fold and the IC50 turned out to be 27 nM.

As to `O=S(=O)(N1CCN(C2COC2)CC1)N(Cc1ccc(-c2nnc(C(F)F)o2)cn1)c1ccc(F)c(Cl)c1` [Compound 11672, N-(3-chloro-4-fluorophenyl)-N-((5-(5-(difluoromethyl)-1,3,4-oxadiazol-2-yl)pyridin-2-yl)methyl)-4-(oxetan-3-yl)piperazine-1-sulfonamide], the “HDAC6 selectivity (fold)” value is on record as 7142 fold and the IC50 is 14 nM.

Turning to `CC(C)N1CCN(S(=O)(=O)N(Cc2ccc(-c3nnc(C(F)F)o3)cc2)c2ccccc2)CC1` [Compound 11673, N-(4-(5-(difluoromethyl)-1,3,4-oxadiazol-2-yl)benzyl)-4-isopropyl-N-phenylpiperazine-1-sulfonamide], the “HDAC6 selectivity (fold)” value turned out to be 1351 fold and the IC50 was 74 nM.

Turning to `O=S(=O)(N1CCN(C2CCC2)CC1)N(Cc1ccc(-c2nnc(C(F)F)o2)cc1)c1ccccc1` [Compound 11674, 4-cyclobutyl-N-(4-(5-(difluoromethyl)-1,3,4-oxadiazol-2-yl)benzyl)-N-phenylpiperazine-1-sulfonamide], the “HDAC6 selectivity (fold)” value is 751 fold and the IC50 amounted to 133 nM.

With `CN(CCN1CCN(C2COC2)CC1)S(=O)(=O)N(Cc1ccc(-c2nnc(C(F)F)o2)cc1)c1ccccc1` [Compound 11704, 2-((4-(((N-methyl-N-(2-(4-(oxetan-3-yl)piperazin-1-yl)ethyl)sulfamoyl)(phenyl)amino)methyl))phenyl)-5-(difluoromethyl)-1,3,4-oxadiazole], the “HDAC6 selectivity (fold)” value was 429 fold and the IC50 was determined as 233 nM.

On to `CC(=O)N1CCN(CCN(C)S(=O)(=O)N(Cc2ccc(-c3nnc(C(F)F)o3)cc2)c2ccccc2)CC1` [Compound 11713, 2-((4-(((N-methyl-N-(2-(4-acetylpiperazin-1-yl)ethyl)sulfamoyl)(phenyl)amino)methyl))phenyl)-5-(difluoromethyl)-1,3,4-oxadiazole], for which the “HDAC6 selectivity (fold)” value came out at 142 fold and the IC50 was found to be 705 nM.

As to `CN(CCN1CCN(S(C)(=O)=O)CC1)S(=O)(=O)N(Cc1ccc(-c2nnc(C(F)F)o2)cc1)c1ccccc1` [Compound 11714, 2-((4-(((N-methyl-N-(2-(4-(methylsulfonyl)piperazin-1-yl)ethyl)sulfamoyl)(phenyl)amino)methyl))phenyl)-5-(difluoromethyl)-1,3,4-oxadiazole], the “HDAC6 selectivity (fold)” value is 616 fold and the IC50 was 162 nM.

For the compound `Cl.O=S(=O)(N1CCC2(CC1)CNC2)N(Cc1ccc(-c2nnc(C(F)F)o2)cc1)c1ccccc1` [Compound 11787, N-(4-(5-(difluoromethyl)-1,3,4-oxadiazol-2-yl)benzyl)-N-phenyl-2,7-diazaspiro[3.5]nonane-7-sulfonamide Hydrochloride], the “HDAC6 selectivity (fold)” value worked out at 1041 fold and the IC50 stood at 96 nM.

Turning to `O=S(=O)(N1CCC2(CC1)CN(C1COC1)C2)N(Cc1ccc(-c2nnc(C(F)F)o2)cc1)c1ccccc1` [Compound 11788, N-(4-(5-(difluoromethyl)-1,3,4-oxadiazol-2-yl)benzyl)-2-(oxetan-3-yl)-N-phenyl-2,7-diazaspiro[3.5]nonane-7-sulfonamide], the “HDAC6 selectivity (fold)” value turned out to be 561 fold and the IC50 came to 178 nM.
